“And” between values parts separate entries of the source, which are not always exact repeats. Equal entries are not always repeated. Inconclusive results and toxic doses are left out.
Tested on: BDF1 mice, L1210 leukemia sc, survival T/C
Test: NCI In Vivo Anticancer Drug Screen. Data for tumor model L1210 Leukemia (subcutaneous) in B6D2F1 (BDF1) mice
Details: endpoint: median survival time, higher = longer survival
Method in brief: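 Expressed as T/C: measurement in compound-treated, tumor-bearing mice relative to vehicle-treated control mice, based on survival or tumor size.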

[1] = dose: 1.08 mg/kg/injection, schedule: Q01DX Z (sc), vehicle: saline
[2] = dose: 1.8 mg/kg/injection, schedule: Q01DX Z (sc), vehicle: saline
[3] = dose: 1.8 mg/kg/injection, schedule: Q02DX Z (sc), vehicle: saline
[4] = dose: 3.0 mg/kg/injection, schedule: Q01DX Z (sc), vehicle: saline
[5] = dose: 3.0 mg/kg/injection, schedule: Q## X Z (sc), vehicle: saline
[6] = dose: 5.0 mg/kg/injection, schedule: Q01DX001 (sc), vehicle: saline
[7] = dose: 5.0 mg/kg/injection, schedule: Q## X Z (sc), vehicle: saline
[8] = dose: 8.4 mg/kg/injection, schedule: Q## X Z (sc), vehicle: saline
[9] = dose: 14.0 mg/kg/injection, schedule: Q02DX Z (sc), vehicle: saline

In the case of `CO[C@@]12[C@H](COC(N)=O)C3=C(C(=O)C(C)=C(N)C3=O)N1C[C@@H]1N[C@@H]12`, the T/C (dose: 0.1 mg/kg/injection, schedule: Q01DX Z (sc), vehicle: saline) was 95 % of control, the T/C (dose: 0.17 mg/kg/injection, schedule: Q01DX Z (sc), vehicle: saline) was 100 % of control and the T/C (dose: 0.28 mg/kg/injection, schedule: Q01DX Z (sc), vehicle: saline) was 100 % of control. The T/C (dose: 0.47 mg/kg/injection, schedule: Q01DX Z (sc), vehicle: saline) was 91 % of control, the T/C (dose: 0.79 mg/kg/injection, schedule: Q01DX Z (sc), vehicle: saline) was 100 % of control and the T/C (dose: 1.0 mg/kg/injection, schedule: Q01DX009 (ip), vehicle: water) was 110 % of control. For the same compound, the T/C (dose: 1.0 mg/kg/injection, schedule: Q01DX009 (sc), vehicle: water) was 101 % of control, the T/C [1] was 100 % of control and the T/C (dose: 1.3 mg/kg/injection, schedule: Q01DX Z (sc), vehicle: other) was 104 % of control. For the same compound, the T/C (dose: 1.3 mg/kg/injection, schedule: Q01DX Z (sc), vehicle: saline) was 104 % of control, the T/C (dose: 1.31 mg/kg/injection, schedule: Q01DX Z (sc), vehicle: saline) was 95 % of control and the T/C [2] was 100 % of control. The T/C [3] was 100 % of control, the T/C (dose: 2.0 mg/kg/injection, schedule: Q01DX009 (ip), vehicle: water) was 110 % of control and the T/C (dose: 2.0 mg/kg/injection, schedule: Q01DX009 (sc), vehicle: water) was 110 % of control and 118 % of control. For the same compound, the T/C (dose: 2.16 mg/kg/injection, schedule: Q01DX Z (sc), vehicle: other) was 100 % of control, the T/C (dose: 2.16 mg/kg/injection, schedule: Q01DX Z (sc), vehicle: saline) was 109 % of control and the T/C (dose: 2.18 mg/kg/injection, schedule: Q01DX Z (sc), vehicle: saline) was 100 % of control. The T/C [4] was 109 % of control, the T/C (dose: 3.0 mg/kg/injection, schedule: Q02DX Z (sc), vehicle: saline) was 109 % of control and the T/C [5] was 104 % of control. For the same compound, the T/C (dose: 3.6 mg/kg/injection, schedule: Q01DX Z (sc), vehicle: other) was 109 % of control, the T/C (dose: 3.6 mg/kg/injection, schedule: Q01DX Z (sc), vehicle: saline) was 113 % of control and the T/C (dose: 4.0 mg/kg/injection, schedule: Q01DX009 (ip), vehicle: water) was 92 % of control. The T/C (dose: 4.0 mg/kg/injection, schedule: Q01DX009 (sc), vehicle: water) was 98 % of control and 121 % of control, the T/C [6] was 109 % of control and the T/C (dose: 5.0 mg/kg/injection, schedule: Q02DX Z (sc), vehicle: saline) was 118 % of control. The T/C [7] was 109 % of control, the T/C (dose: 6.0 mg/kg/injection, schedule: Q01DX Z (sc), vehicle: other) was 113 % of control and the T/C (dose: 6.0 mg/kg/injection, schedule: Q01DX Z (sc), vehicle: saline) was 118 % of control. For the same compound, the T/C (dose: 6.06 mg/kg/injection, schedule: Q01DX Z (sc), vehicle: saline) was 116 % of control, the T/C (dose: 8.0 mg/kg/injection, schedule: Q01DX009 (sc), vehicle: water) was 108 % of control and the T/C (dose: 8.4 mg/kg/injection, schedule: Q01DX001 (sc), vehicle: saline) was 113 % of control. For the same compound, the T/C (dose: 8.4 mg/kg/injection, schedule: Q01DX Z (sc), vehicle: saline) was 118 % of control, the T/C [8] was 122 % of control and the T/C (dose: 10.0 mg/kg/injection, schedule: Q01DX Z (sc), vehicle: other) was 109 % of control. For the same compound, the T/C (dose: 10.0 mg/kg/injection, schedule: Q01DX Z (sc), vehicle: saline) was 100 % of control, the T/C (dose: 14.0 mg/kg/injection, schedule: Q01DX Z (sc), vehicle: saline) was 109 % of control and the T/C [9] was 118 % of control. For the same compound, the T/C (dose: 16.0 mg/kg/injection, schedule: Q01DX009 (sc), vehicle: water) was 97 % of control, the T/C (dose: 23.0 mg/kg/injection, schedule: Q01DX001 (sc), vehicle: saline) was 118 % of control and the T/C (dose: 23.0 mg/kg/injection, schedule: Q01DX Z (sc), vehicle: saline) was 109 % of control. For the same compound, the T/C (dose: 23.0 mg/kg/injection, schedule: Q02DX Z (sc), vehicle: saline) was 118 % of control, the T/C (dose: 23.0 mg/kg/injection, schedule: Q## X Z (sc), vehicle: saline) was 118 % of control and the T/C (dose: 39.0 mg/kg/injection, schedule: Q01DX001 (sc), vehicle: saline) was 118 % of control. The T/C (dose: 39.0 mg/kg/injection, schedule: Q02DX Z (sc), vehicle: saline) was 122 % of control, the T/C (dose: 39.0 mg/kg/injection, schedule: Q## X Z (sc), vehicle: saline) was 118 % of control and the T/C (dose: 65.0 mg/kg/injection, schedule: Q01DX001 (sc), vehicle: saline) was 109 % of control.

With `Nc1ccn(C2OC(COP(=O)(O)O)C(O)C2O)c(=O)n1` (stereo unspecified) the T/C (dose: 3.5 mg/kg/injection, schedule: Q01DX Z (sc), vehicle: other) was 200 % of control, the T/C (dose: 5.8 mg/kg/injection, schedule: Q01DX Z (sc), vehicle: other) was 244 % of control and the T/C (dose: 9.7 mg/kg/injection, schedule: Q01DX Z (sc), vehicle: other) was 272 % of control. For the same compound, the T/C (dose: 16.2 mg/kg/injection, schedule: Q01DX Z (sc), vehicle: other) was 300 % of control, the T/C (dose: 27.0 mg/kg/injection, schedule: Q01DX Z (sc), vehicle: other) was 350 % of control and the T/C (dose: 45.1 mg/kg/injection, schedule: Q01DX Z (sc), vehicle: other) was 305 % of control. For the same compound, the T/C (dose: 75.1 mg/kg/injection, schedule: Q01DX Z (sc), vehicle: other) was 205 % of control.

For `O=C(NP(=O)(N1CC1)N1CC1)OCc1ccccc1`, the T/C (dose: 3.0 mg/kg/injection, schedule: Q01DX Z (sc), vehicle: water) was 111 % of control, the T/C (dose: 14.0 mg/kg/injection, schedule: Q01DX Z (sc), vehicle: water) was 111 % of control and the T/C (dose: 23.0 mg/kg/injection, schedule: Q01DX Z (sc), vehicle: water) was 111 % of control.

`O=c1[nH]c(=O)n(C2OC(CO)C(O)C2O)cc1I` (stereo unspecified) was tested, and the T/C (dose: 39.0 mg/kg/injection, schedule: Q01DX Z (sc), vehicle: saline) was 100 % of control, the T/C (dose: 65.0 mg/kg/injection, schedule: Q01DX Z (sc), vehicle: saline) was 100 % of control and the T/C (dose: 108.0 mg/kg/injection, schedule: Q01DX Z (sc), vehicle: saline) was 100 % of control. The T/C (dose: 180.0 mg/kg/injection, schedule: Q01DX Z (sc), vehicle: saline) was 94 % of control and 100 % of control, the T/C (dose: 300.0 mg/kg/injection, schedule: Q01DX Z (sc), vehicle: saline) was 100 % of control and the T/C (dose: 500.0 mg/kg/injection, schedule: Q01DX Z (sc), vehicle: saline) was 100 % of control and 105 % of control. The T/C (dose: 833.0 mg/kg/injection, schedule: Q01DX Z (sc), vehicle: saline) was 94 % of control and the T/C (dose: 1388.0 mg/kg/injection, schedule: Q01DX Z (sc), vehicle: saline) was 94 % of control.

In the case of `CC1CC(C)(O)CC(C(O)CC2CC(=O)NC(=O)C2)C1=O` (stereo unspecified), the T/C (dose: 0.14 mg/kg/injection, schedule: Q01DX Z (sc), vehicle: saline) was 108 % of control, the T/C (dose: 0.24 mg/kg/injection, schedule: Q01DX Z (sc), vehicle: saline) was 120 % of control and the T/C (dose: 0.39 mg/kg/injection, schedule: Q02DX Z (sc), vehicle: saline) was 120 % of control. For the same compound, the T/C (dose: 0.4 mg/kg/injection, schedule: Q01DX Z (sc), vehicle: saline) was 116 % of control, the T/C (dose: 0.65 mg/kg/injection, schedule: Q02DX Z (sc), vehicle: saline) was 120 % of control and the T/C (dose: 0.67 mg/kg/injection, schedule: Q01DX Z (sc), vehicle: saline) was 116 % of control. For the same compound, the T/C [1] was 120 % of control, the T/C (dose: 1.08 mg/kg/injection, schedule: Q02DX Z (sc), vehicle: saline) was 120 % of control and the T/C (dose: 1.08 mg/kg/injection, schedule: Q## X Z (sc), vehicle: saline) was 110 % of control. For the same compound, the T/C (dose: 1.12 mg/kg/injection, schedule: Q01DX Z (sc), vehicle: saline) was 104 % of control, the T/C [2] was 120 % of control and the T/C [3] was 120 % of control. For the same compound, the T/C (dose: 1.8 mg/kg/injection, schedule: Q## X Z (sc), vehicle: saline) was 110 % of control, the T/C (dose: 1.87 mg/kg/injection, schedule: Q01DX Z (sc), vehicle: saline) was 100 % of control and the T/C (dose: 3.0 mg/kg/injection, schedule: Q01DX001 (sc), vehicle: saline) was 120 % of control. The T/C [4] was 110 % of control, the T/C [5] was 115 % of control and the T/C (dose: 3.11 mg/kg/injection, schedule: Q01DX Z (sc), vehicle: saline) was 100 % of control. For the same compound, the T/C [6] was 120 % of control, the T/C (dose: 5.0 mg/kg/injection, schedule: Q01DX Z (sc), vehicle: saline) was 100 % of control and the T/C [7] was 115 % of control. The T/C (dose: 8.4 mg/kg/injection, schedule: Q02DX Z (sc), vehicle: saline) was 110 % of control, the T/C [8] was 120 % of control and the T/C [9] was 100 % of control. The T/C (dose: 14.0 mg/kg/injection, schedule: Q## X Z (sc), vehicle: saline) was 120 % of control.

Source: PubChem BioAssay AID250 (DTP/NCI, 2004)
